Tests used:
hCA II = hCA II (Homo sapiens, UniProt P00918); experiment: Stopped-flow CA catalysed CO2 hydration inhibition assay, hCA II; format: biochemical
hCA XII = hCA XII (Homo sapiens, UniProt O43570); experiment: Stopped-flow CA catalysed CO2 hydration inhibition assay, hCA XII; format: biochemical
hCA I = hCA I (Homo sapiens, UniProt P00915); experiment: Stopped-flow CA catalysed CO2 hydration inhibition assay, hCA I; format: biochemical
hCA IX = hCA IX (Homo sapiens, UniProt Q16790); experiment: biochemical

hCA I, sequence (P00915 whole entry): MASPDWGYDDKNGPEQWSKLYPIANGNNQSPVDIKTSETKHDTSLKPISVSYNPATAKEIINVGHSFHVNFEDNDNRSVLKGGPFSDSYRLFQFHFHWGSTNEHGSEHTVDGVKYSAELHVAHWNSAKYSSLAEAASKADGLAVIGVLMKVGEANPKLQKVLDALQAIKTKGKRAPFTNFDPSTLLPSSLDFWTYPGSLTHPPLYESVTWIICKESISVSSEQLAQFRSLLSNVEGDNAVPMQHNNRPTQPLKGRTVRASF
hCA XII, sequence (O43570 30-289 limits assumed): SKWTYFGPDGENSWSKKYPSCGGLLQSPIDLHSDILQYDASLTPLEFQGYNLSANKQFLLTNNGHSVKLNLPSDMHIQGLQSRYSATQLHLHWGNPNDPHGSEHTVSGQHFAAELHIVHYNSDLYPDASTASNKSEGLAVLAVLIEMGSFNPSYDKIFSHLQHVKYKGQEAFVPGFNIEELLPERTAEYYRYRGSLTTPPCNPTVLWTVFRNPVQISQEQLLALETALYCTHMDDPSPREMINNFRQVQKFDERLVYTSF

| SMILES | Ki (hCA II) [µM] | Ki (hCA XII) [µM] | Ki (hCA I) [µM] | Ki (hCA IX) [µM] |
| --- | --- | --- | --- | --- |
| Cc1c(CC(=O)O)c(=O)oc2c(C)c3occ(-c4ccc(Cl)cc4)c3cc12 [EMAC10164j, 2-(3-(4-Chlorophenyl)-5,9-dimethyl-7-oxo-7H-furo[3,2-g]chromen-6-yl)acetic acid] | > 100 | 7.86 | > 100 | 3.22 |
| COC(=O)Cc1c(C)c2ccc(OCC(=O)c3ccc([N+](=O)[O-])cc3)c(C)c2oc1=O [EMAC10163e, Methyl 2-(4,8-dimethyl-7-(2-(4-nitrophenyl)-2-oxoethoxy)-2-oxo-2H-chromen-3-yl)acetate] | > 100 | 7.84 | > 100 | 4.64 |
| COC(=O)Cc1c(C)c2ccc(OCC(=O)c3ccc(F)cc3F)c(C)c2oc1=O [EMAC10163h, Methyl 2-(7-(2-(2,4-difluorophenyl)-2-oxoethoxy)-4,8-dimethyl-2-oxo-2H-chromen-3-yl)acetate] | > 100 | 5.56 | > 100 | 4.51 |
| COC(=O)Cc1c(C)c2ccc(OCC(=O)c3cccc([N+](=O)[O-])c3)c(C)c2oc1=O [EMAC10163f, Methyl 2-(4,8-dimethyl-7-(2-(3-nitrophenyl)-2-oxoethoxy)-2-oxo-2H-chromen-3-yl)acetate] | > 100 | 7.82 | > 100 | > 100 |
| Cc1c(CC(=O)O)c(=O)oc2c(C)c3occ(-c4ccc(F)cc4)c3cc12 [EMAC10164d, 2-(3-(4-Fluorophenyl)-5,9-dimethyl-7-oxo-7H-furo[3,2-g]chromen-6-yl)acetic acid] | > 100 | 0.8 | > 100 | 0.46 |
| Cc1ccc(-c2coc3c(C)c4oc(=O)c(CC(=O)O)c(C)c4cc23)cc1 [EMAC10164a, 2-(5,9-Dimethyl-7-oxo-3-(p-tolyl)-7H-furo[3,2-g]chromen-6-yl)acetic acid] | > 100 | 4.09 | > 100 | > 100 |
| COC(=O)Cc1c(C)c2ccc(OCC(=O)c3ccc(OC)cc3)c(C)c2oc1=O [EMAC10163b, Methyl 2-(7-(2-(4-methoxyphenyl)-2-oxoethoxy)-4,8-dimethyl-2-oxo-2H-chromen-3-yl)acetate] | > 100 | 0.47 | > 100 | 0.53 |
| COC(=O)Cc1c(C)c2ccc(OCC(=O)c3ccc(Cl)cc3)c(C)c2oc1=O [EMAC10163j, Methyl 2-(7-(2-(4-chlorophenyl)-2-oxoethoxy)-4,8-dimethyl-2-oxo-2H-chromen-3-yl)acetate] | > 100 | 2.41 | > 100 | > 100 |
| Cc1c(CC(=O)O)c(=O)oc2c(C)c3occ(-c4ccc(F)cc4F)c3cc12 [EMAC10164h, 2-(3-(2,4-Difluorophenyl)-5,9-dimethyl-7-oxo-7H-furo[3,2-g]chromen-6-yl)acetic acid] | > 100 | 6.37 | > 100 | 4.27 |
| COC(=O)Cc1c(C)c2ccc(OCC(=O)c3ccc(F)cc3)c(C)c2oc1=O [EMAC10163d, Methyl 2-(7-(2-(4-fluorophenyl)-2-oxoethoxy)-4,8-dimethyl-2-oxo-2H-chromen-3-yl)acetate] | > 100 | 6.04 | > 100 | 2.39 |
| Cc1c(CC(=O)O)c(=O)oc2c(C)c3occ(-c4ccccc4)c3cc12 [EMAC10164i, 2-(5,9-Dimethyl-7-oxo-3-phenyl-7H-furo[3,2-g]chromen-6-yl)acetic acid] | > 100 | 3.38 | > 100 | 3.18 |
| COC(=O)Cc1c(C)c2ccc(OCC(=O)c3ccc(-c4ccccc4)cc3)c(C)c2oc1=O [EMAC10163g, Methyl 2-(7-(2-([1,1′-biphenyl]-4-yl)-2-oxoethoxy)-4,8-dimethyl-2-oxo-2H-chromen-3-yl)acetate] | > 100 | 8.88 | > 100 | > 100 |
| COC(=O)Cc1c(C)c2ccc(OCC(=O)c3cccc(OC)c3)c(C)c2oc1=O [EMAC10163k, Methyl 2-(7-(2-(3-methoxyphenyl)-2-oxoethoxy)-4,8-dimethyl-2-oxo-2H-chromen-3-yl)acetate] | > 100 | 4.86 | > 100 | > 100 |
| Cc1c(CC(=O)O)c(=O)oc2c(C)c3occ(-c4ccc(-c5ccccc5)cc4)c3cc12 [EMAC10164g, 2-(3-([1,1′-Biphenyl]-4-yl)-5,9-dimethyl-7-oxo-7H-furo[3,2-g]chromen-6-yl)acetic acid] | > 100 | 0.82 | > 100 | 0.71 |
| COc1cccc(-c2coc3c(C)c4oc(=O)c(CC(=O)O)c(C)c4cc23)c1 [EMAC10164k, 2-(3-(3-Methoxyphenyl)-5,9-dimethyl-7-oxo-7H-furo[3,2-g]chromen-6-yl)acetic acid] | > 100 | 3.66 | > 100 | 4.16 |
| Cc1c(CC(=O)O)c(=O)oc2c(C)c3occ(-c4ccc(Br)cc4)c3cc12 [EMAC10164c, 2-(3-(4-Bromophenyl)-5,9-dimethyl-7-oxo-7H-furo[3,2-g]chromen-6-yl)acetic acid] | > 100 | 4.44 | > 100 | > 100 |
| COC(=O)Cc1c(C)c2ccc(OCC(=O)c3ccccc3)c(C)c2oc1=O [EMAC10163i, Methyl 2-(4,8-dimethyl-2-oxo-7-(2-oxo-2-phenylethoxy)-2H-chromen-3-yl)acetate] | > 100 | 5.25 | > 100 | > 100 |
| COc1ccc(-c2coc3c(C)c4oc(=O)c(CC(=O)O)c(C)c4cc23)cc1 [EMAC10164b, 2-(3-(4-Methoxyphenyl)-5,9-dimethyl-7-oxo-7H-furo[3,2-g]chromen-6-yl)acetic acid] | > 100 | 4.59 | > 100 | > 100 |
| COC(=O)Cc1c(C)c2ccc(OCC(=O)c3ccc(Br)cc3)c(C)c2oc1=O [EMAC10163c, Methyl 2-(7-(2-(4-bromophenyl)-2-oxoethoxy)-4,8-dimethyl-2-oxo-2H-chromen-3-yl)acetate] | > 100 | 5.43 | > 100 | 4.16 |
| COC(=O)Cc1c(C)c2ccc(OCC(=O)c3ccc(C)cc3)c(C)c2oc1=O [EMAC10163a, Methyl 2‐{4,8‐dimethyl‐7‐[2‐(4‐methylphenyl)‐2‐oxoethoxy]‐2‐oxo‐2H‐chromen‐3‐yl}acetate] | > 100 | 2.52 | > 100 | 2.98 |

— article PMC11003494 (Journal of Enzyme Inhibition and Medicinal Chemistry, 2023)
